According to PubChem BioAssay (NCI):
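All cell lines were grown in 96-well plates and treated with compound for 48 hours. TGI marks complete inhibition of growth.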

Legend:
Experiment in all cases: growth of human tumour cells (NCI), 48 h
HOP-92 NSCLC = tested on: HOP-92 NSCLC
LOX IMVI melanoma = tested on: LOX IMVI melanoma
BT-549 breast = tested on: BT-549 breast
HS 578T breast = tested on: HS 578T breast
MCF7 breast = tested on: MCF7 breast
M14 melanoma = tested on: M14 melanoma
MOLT-4 leukemia = tested on: MOLT-4 leukemia
HOP-62 NSCLC = tested on: HOP-62 NSCLC
NCI-H460 lung = tested on: NCI-H460 lung
MDA-MB-435 = tested on: MDA-MB-435
OVCAR-4 ovarian = tested on: OVCAR-4 ovarian
EKVX NSCLC = tested on: EKVX NSCLC
UO-31 renal = tested on: UO-31 renal
SNB-19 CNS = tested on: SNB-19 CNS
NCI-H522 lung = tested on: NCI-H522 lung
HT29 colon = tested on: HT29 colon
MDA-MB-231 breast = tested on: MDA-MB-231 breast
HCT-15 colon = tested on: HCT-15 colon
SK-MEL-5 melanoma = tested on: SK-MEL-5 melanoma
T-47D breast = tested on: T-47D breast
SN12C renal = tested on: SN12C renal
ACHN renal = tested on: ACHN renal
OVCAR-8 ovarian = tested on: OVCAR-8 ovarian
CAKI-1 renal = tested on: CAKI-1 renal
786-0 renal = tested on: 786-0 renal
HCC-2998 colon = tested on: HCC-2998 colon
K-562 leukemia = tested on: K-562 leukemia
TK-10 renal = tested on: TK-10 renal
PC-3 prostate = tested on: PC-3 prostate
UACC-257 melanoma = tested on: UACC-257 melanoma
UACC-62 melanoma = tested on: UACC-62 melanoma
U251 CNS = tested on: U251 CNS
SK-MEL-2 melanoma = tested on: SK-MEL-2 melanoma
OVCAR-3 ovarian = tested on: OVCAR-3 ovarian
SK-OV-3 ovarian = tested on: SK-OV-3 ovarian
COLO 205 colon = tested on: COLO 205 colon
RXF 393 renal = tested on: RXF 393 renal
NCI-H23 lung = tested on: NCI-H23 lung
SW-620 colon = tested on: SW-620 colon
SF-268 CNS = tested on: SF-268 CNS
MDA-N = tested on: MDA-N
A549 NSCLC = tested on: A549 NSCLC
HCT-116 colon = tested on: HCT-116 colon
SF-295 CNS = tested on: SF-295 CNS
IGROV1 ovarian = tested on: IGROV1 ovarian
OVCAR-5 ovarian = tested on: OVCAR-5 ovarian
KM12 colon = tested on: KM12 colon
DU-145 prostate = tested on: DU-145 prostate
NCI/ADR-RES ovarian = tested on: NCI/ADR-RES ovarian
SF-539 CNS = tested on: SF-539 CNS
SK-MEL-28 melanoma = tested on: SK-MEL-28 melanoma
RPMI-8226 leukemia = tested on: RPMI-8226 leukemia
NCI-H226 lung = tested on: NCI-H226 lung
HL-60(TB) leukemia = tested on: HL-60(TB) leukemia
CCRF-CEM leukemia = tested on: CCRF-CEM leukemia
SR leukemia = tested on: SR leukemia
MALME-3M melanoma = tested on: MALME-3M melanoma
SNB-75 CNS = tested on: SNB-75 CNS
A498 renal = tested on: A498 renal

Cc1ccccc1NC(=O)C(=O)CC(=O)c1sc(Nc2ccccc2[N+](=O)[O-])nc1C
TGI (HOP-92 NSCLC): 59.6 µM
TGI (LOX IMVI melanoma): > 100 µM
TGI (BT-549 breast): 79 µM
TGI (HS 578T breast): > 100 µM
TGI (MCF7 breast): 70.3 µM
TGI (M14 melanoma): > 100 µM
TGI (MOLT-4 leukemia): > 100 µM
TGI (HOP-62 NSCLC): 58.1 µM
TGI (NCI-H460 lung): > 100 µM
TGI (MDA-MB-435): > 100 µM
TGI (OVCAR-4 ovarian): 52.9 µM
TGI (EKVX NSCLC): > 100 µM
TGI (UO-31 renal): 32.4 µM
TGI (SNB-19 CNS): > 100 µM
TGI (NCI-H522 lung): 86.1 µM
TGI (HT29 colon): > 100 µM
TGI (MDA-MB-231 breast): 40.2 µM
TGI (HCT-15 colon): > 100 µM
TGI (SK-MEL-5 melanoma): > 100 µM
TGI (T-47D breast): 68.1 µM
TGI (SN12C renal): > 100 µM
TGI (ACHN renal): 48.3 µM
TGI (OVCAR-8 ovarian): > 100 µM
TGI (CAKI-1 renal): > 100 µM
TGI (786-0 renal): 48.3 µM
TGI (HCC-2998 colon): 59.3 µM
TGI (K-562 leukemia): > 100 µM
TGI (TK-10 renal): 81.5 µM
TGI (PC-3 prostate): > 100 µM
TGI (UACC-257 melanoma): > 100 µM
TGI (UACC-62 melanoma): 48 µM
TGI (U251 CNS): > 100 µM
TGI (SK-MEL-2 melanoma): > 100 µM
TGI (OVCAR-3 ovarian): 79.5 µM
TGI (SK-OV-3 ovarian): 58.7 µM
TGI (COLO 205 colon): > 100 µM
TGI (RXF 393 renal): 89.1 µM
TGI (NCI-H23 lung): > 100 µM
TGI (SW-620 colon): > 100 µM
TGI (SF-268 CNS): > 100 µM
TGI (MDA-N): > 100 µM
TGI (A549 NSCLC): > 100 µM
TGI (HCT-116 colon): > 100 µM
TGI (SF-295 CNS): 66.7 µM
TGI (IGROV1 ovarian): > 100 µM
TGI (OVCAR-5 ovarian): > 100 µM
TGI (KM12 colon): > 100 µM
TGI (DU-145 prostate): > 100 µM
TGI (NCI/ADR-RES ovarian): > 100 µM
TGI (SF-539 CNS): 91 µM
TGI (SK-MEL-28 melanoma): 82.8 µM
TGI (RPMI-8226 leukemia): > 100 µM
TGI (NCI-H226 lung): > 100 µM
TGI (HL-60(TB) leukemia): > 100 µM

O=C(c1ccco1)n1c2ccc(Br)cc2c2nc3ccccc3nc21
TGI (HOP-92 NSCLC): > 100 µM
TGI (LOX IMVI melanoma): > 100 µM
TGI (BT-549 breast): > 100 µM
TGI (MCF7 breast): > 100 µM
TGI (M14 melanoma): > 100 µM
TGI (MOLT-4 leukemia): > 100 µM
TGI (HOP-62 NSCLC): 87 µM
TGI (NCI-H460 lung): > 100 µM
TGI (MDA-MB-435): > 100 µM
TGI (OVCAR-4 ovarian): > 100 µM
TGI (EKVX NSCLC): > 100 µM
TGI (CCRF-CEM leukemia): > 100 µM
TGI (SR leukemia): > 100 µM
TGI (UO-31 renal): > 100 µM
TGI (SNB-19 CNS): > 100 µM
TGI (NCI-H522 lung): 41.5 µM
TGI (HT29 colon): > 100 µM
TGI (HCT-15 colon): > 100 µM
TGI (SK-MEL-5 melanoma): > 100 µM
TGI (T-47D breast): > 100 µM
TGI (SN12C renal): > 100 µM
TGI (ACHN renal): > 100 µM
TGI (OVCAR-8 ovarian): > 100 µM
TGI (CAKI-1 renal): > 100 µM
TGI (786-0 renal): 51 µM
TGI (HCC-2998 colon): > 100 µM
TGI (K-562 leukemia): > 100 µM
TGI (TK-10 renal): > 100 µM
TGI (PC-3 prostate): > 100 µM
TGI (UACC-257 melanoma): > 100 µM
TGI (UACC-62 melanoma): > 100 µM
TGI (MALME-3M melanoma): > 100 µM
TGI (U251 CNS): > 100 µM
TGI (SK-MEL-2 melanoma): > 100 µM
TGI (OVCAR-3 ovarian): > 100 µM
TGI (COLO 205 colon): > 100 µM
TGI (RXF 393 renal): > 100 µM
TGI (NCI-H23 lung): > 100 µM
TGI (SW-620 colon): > 100 µM
TGI (SF-268 CNS): > 100 µM
TGI (MDA-N): > 100 µM
TGI (HCT-116 colon): > 100 µM
TGI (SF-295 CNS): > 100 µM
TGI (IGROV1 ovarian): > 100 µM
TGI (OVCAR-5 ovarian): > 100 µM
TGI (KM12 colon): 97.6 µM
TGI (DU-145 prostate): > 100 µM
TGI (NCI/ADR-RES ovarian): > 100 µM
TGI (SF-539 CNS): > 100 µM
TGI (SNB-75 CNS): 58.6 µM
TGI (SK-MEL-28 melanoma): > 100 µM
TGI (RPMI-8226 leukemia): 54.6 µM
TGI (NCI-H226 lung): > 100 µM
TGI (HL-60(TB) leukemia): > 100 µM

C=C1CC2(C[C@@H](c3ccccc3)O[C@@H](c3ccccc3)C2)OC1=O (stereo partly specified)
TGI (HOP-92 NSCLC): 9.81 µM
TGI (LOX IMVI melanoma): 2.84 µM
TGI (BT-549 breast): 4.24 µM
TGI (HS 578T breast): 9.44 µM
TGI (MCF7 breast): 5.73 µM
TGI (M14 melanoma): 3.34 µM
TGI (MOLT-4 leukemia): 5.61 µM
TGI (HOP-62 NSCLC): 28.1 µM
TGI (NCI-H460 lung): 23.3 µM
TGI (MDA-MB-435): 7.48 µM
TGI (OVCAR-4 ovarian): 13.5 µM
TGI (EKVX NSCLC): 25.7 µM
TGI (CCRF-CEM leukemia): 5.34 µM
TGI (UO-31 renal): 18.4 µM
TGI (SNB-19 CNS): 29.7 µM
TGI (NCI-H522 lung): 3.02 µM
TGI (HT29 colon): 8.97 µM
TGI (MDA-MB-231 breast): 4.58 µM
TGI (HCT-15 colon): 5.91 µM
TGI (SK-MEL-5 melanoma): 8.83 µM
TGI (T-47D breast): 3.68 µM
TGI (SN12C renal): 9.62 µM
TGI (ACHN renal): 9.01 µM
TGI (OVCAR-8 ovarian): 7.48 µM
TGI (CAKI-1 renal): 4.53 µM
TGI (786-0 renal): 5.63 µM
TGI (HCC-2998 colon): 14.6 µM
TGI (K-562 leukemia): 7.51 µM
TGI (TK-10 renal): 3.89 µM
TGI (PC-3 prostate): 14.5 µM
TGI (UACC-257 melanoma): 10.8 µM
TGI (UACC-62 melanoma): 7.7 µM
TGI (MALME-3M melanoma): 4.28 µM
TGI (U251 CNS): 28.9 µM
TGI (SK-MEL-2 melanoma): 11.3 µM
TGI (OVCAR-3 ovarian): 6.07 µM
TGI (SK-OV-3 ovarian): 27.8 µM
TGI (COLO 205 colon): 4.45 µM
TGI (RXF 393 renal): 3.55 µM
TGI (NCI-H23 lung): 7.72 µM
TGI (SW-620 colon): 3.95 µM
TGI (A498 renal): 23.5 µM
TGI (SF-268 CNS): 23.6 µM
TGI (MDA-N): 5.76 µM
TGI (A549 NSCLC): 13.4 µM
TGI (HCT-116 colon): 3.71 µM
TGI (SF-295 CNS): 26.8 µM
TGI (IGROV1 ovarian): 8.26 µM
TGI (OVCAR-5 ovarian): 26.9 µM
TGI (KM12 colon): 15.5 µM
TGI (DU-145 prostate): 21.4 µM
TGI (NCI/ADR-RES ovarian): 15.4 µM
TGI (SF-539 CNS): 4.94 µM
TGI (SNB-75 CNS): 14.3 µM
TGI (SK-MEL-28 melanoma): 3.83 µM
TGI (RPMI-8226 leukemia): 2.57 µM
TGI (NCI-H226 lung): 32 µM
TGI (HL-60(TB) leukemia): 2.84 µM
